Assays:
Format in all cases: in vivo, human
[1] = tested on: patients with symptomatic MDD; test: Safety and tolerability in Phase 1B study
Description: (§1) A double-blind, placebo-controlled, multiple-ascending-dose study employing the compound of formula (1) was performed in patients with symptomatic MDD. Twenty-four subjects were recruited, with their diagnosis and illness severity confirmed through an independent, remote SAFER interview (Targum, S. D., et al., CNS Neurosci. Ther. (2008) 14:2-9) from the Massachusetts General Hospital (MGH) Clinical Trials Network and Institute (CTNI) raters. Each patient underwent a screening for eligibility (Day −37 to Day −6 or −3) and eligible patients were admitted into the unit on Day −5 to complete their wash-out and be reconfirmed for eligibility and for baseline assessments. The patients received daily dosing of formula (1) or placebo for 28 days starting on Day 1 and were followed for safety, pharmacokinetics (PK) and pharmacodynamics (PD) until discharge. At the conclusion of in-house dosing (Day 28), patients remained in the unit for up to 3 additional days, at the psychiatrist's discretion. On Day 35 (±3), Day 42 (±3), Day 49 (±3) and Day 70 (±3) outpatient follow-up visits took place. Patients returned to the unit for extensive follow-up on Day 56 (±3) and Day 84 (±3) (End-of-study).
(§2) The subjects were randomized into four groups of 6 patients each to receive 40 mg of formula (1) per dose administered orally in gelatin capsules once daily, twice daily or three times daily to provide 40 or 80 or 120 mg daily of formula (1) or placebo for 28 days. Each cohort included at least 3 female subjects. In this example, qEEG was used to characterize pharmacodynamic effects.
In addition to safety, pharmacokinetic and the behavioral ratings scales described in Example 2, qEEG measurements were obtained 6 hours post-dose on Days 14 and 28 for 20 minutes at rest. EEGs were recorded using 19-standard International 10/20 System scalp locations plus electromyography (EMG) and eye movement monitoring. Digital EEGs recorded using Cadwell Laboratories instrumentation, were reviewed to identify the presence of physiological and instrumentation prior to analyses. […]

[2] = tested on: patients with symptomatic MDD; test: Overall efficacy assessment in Phase 1B study
Description: as §1, with “On Day 35 (±3), Day 42 (±3), Day 49 (±3) and Day 70 (±3) outpatient follow-up visits took place. Patients returned to the unit for extensive follow-up on Day 56 (±3) and Day 84 (±3) (End-of-study).” left out
In this example, the results of the study of Example 1 were evaluated by the efficacy assessments that included the Montgomery-Asberg Depression Rating Scale (MADRS), the Clinician Global Impression-Improvement (CGI-I), the Symptoms of Depression Questionnaire (SDQ) and the Cognitive and Physical Functioning Questionnaire (CPFQ). […]

[3] = tested on: patients with symptomatic MDD; test: Symptoms of Depression Questionnaire (SDQ), Phase 1B study; settings: for Cohen's d value, SDQ (ANCOVA): all test groups (n=18) vs placebo (n=6)
Description: as §1, §2
In this example, the results of the study of Example 1 were evaluated by the efficacy assessments that included the Montgomery-Asberg Depression Rating Scale (MADRS), the Clinician Global Impression-Improvement (CGI-I), the Symptoms of Depression Questionnaire (SDQ) and the Cognitive and Physical Functioning Questionnaire (CPFQ). […] These improvements persisted over time during the follow-up for MADRS, SDQ and CPFQ.
Baseline values were adjusted for initial differences and the results for the placebo group (n=6) and the tested groups (n=18) were collapsed. The sizes of the effects were estimated as Cohen's d group mean differences where d=0.20 indicates only a small difference, d=0.50 indicates a medium difference and d=0.80 indicates a large difference. Cohen's d values are described in Cohen, J. (1988) Statistical Power Analysis for the Behavioral Sciences (2nd ed.), Lawrence Erlbaum Associates. D values are used when the scale of a dependent variable is not inherently meaningful, the difference between means are considered in standardized units. That is, effect size is measured in terms of the number of standard deviations by which the means differ. Two commonly used measures are Hedges' g and Cohen's d. Both of these measures consist of the difference between means divided by the standard deviation. They differ only in that Hedges' g uses the version of the standard deviation formula in which division is by N−1, whereas Cohen's d uses the version in which division is by N.
Covariance is a measure of how much two variables change together and how strong the relationship is between them (Lenth, R. V., The American Statistician (2001) 55:187-193). Analysis of covariance (ANCOVA) is a general linear model which blends analysis of variance (ANOVA) and regression. ANCOVA evaluates whether population means of a dependent variable (DV) are equal across levels of a categorical independent variable (IV), while statistically controlling for the effects of other continuous variables that are not of primary interest, known as covariates (CV). Therefore, when performing ANCOVA, the DV means are adjusted to what they would be if all groups were equal on the CV. In the CGI-I assay, Day 7 was used as the baseline value; in the remaining assays, Day 0 was used as baseline.

CC(C)CCNc1ncccc1C(=O)N1CCN(Cc2ccccc2)CC1 [formula (1)]
Serious adverse events ([1]; 40-120 mg/day oral for 28 days): No serious adverse events occurred | Tolerability ([1]; 40-120 mg/day oral for 28 days): well tolerated | Safety EEG recordings by visual inspection ([1]; pre vs post dose): no new findings | Depressive and cognitive symptoms across all measures ([2]; Day 28, two lower doses (40 mg/day and 80 mg/day)): clinically meaningful reduction in depressive and cognitive symptoms across all measures | Effect on condition of patients, further analysis ([2]; highest dose (120 mg/day)): effective in improving the condition of these patients | SDQ score ([3]; 40 mg/day, FIG. 3, placebo (n=2) 3.1): 2.5 | SDQ score ([3]; 80 mg/day, FIG. 3, controls (n=2) 3.5): 2.7 | SDQ score versus controls ([3]; 120 mg/day, at 28 days, FIG. 3): slightly higher than controls | SDQ Means ([3]; Day 14, 1x = 40 mg/day oral (n=6)): 3.1174 | SDQ Means ([3]; Day 14, 2x = 80 mg/day oral (n=6)): 2.8485 | SDQ Means ([3]; Day 14, 3x = 120 mg/day oral (n=6)): 2.822 | SDQ Means ([3]; Day 14, all three dose groups pooled (n=18)): 2.9293 | SDQ Means ([3]; Day 28, 1x = 40 mg/day oral (n=6)): 2.5795 | SDQ Means ([3]; Day 28, 2x = 80 mg/day oral (n=6)): 2.6856 | SDQ Means ([3]; Day 28, 3x = 120 mg/day oral (n=6)): 2.6439 | SDQ Means ([3]; Day 28, all three dose groups pooled (n=18)): 2.6364 | Cohen's d value, SDQ (ANCOVA) ([3]; Day 30): 0.90 | SDQ Means ([3]; Day 56 (follow-up after 28 days dosing), 1x = 40 mg/day oral): 2.6023 | SDQ Means ([3]; Day 56 (follow-up after 28 days dosing), 2x = 80 mg/day oral): 2.3371 | SDQ Means ([3]; Day 56 (follow-up after 28 days dosing), 3x = 120 mg/day oral): 2.5909 | SDQ Means ([3]; Day 56 (follow-up after 28 days dosing), all three dose groups pooled (n=18)): 2.5101 | SDQ Means ([3]; Day 84 (follow-up after 28 days dosing), 1x = 40 mg/day oral): 2.6364 | SDQ Means ([3]; Day 84 (follow-up after 28 days dosing), 2x = 80 mg/day oral): 2.4508 | SDQ Means ([3]; Day 84 (follow-up after 28 days dosing), 3x = 120 mg/day oral): 2.4318 | SDQ Means ([3]; Day 84 (follow-up after 28 days dosing), all three dose groups pooled): 2.5107 | Cohen's d value, SDQ (ANCOVA) ([3]; Day 85): 1.10 | SDQ Means ([3]; Day −5 (baseline before dosing), 1x = 40 mg/day group): 3.4508 | SDQ Means ([3]; Day −5 (baseline before dosing), 2x = 80 mg/day group): 3.2652 | SDQ Means ([3]; Day −5 (baseline before dosing), 3x = 120 mg/day group): 3.4242 | SDQ Means ([3]; Day −5 (baseline before dosing), all three dose groups pooled (n=18)): 3.3801

Reference: patent publication US9572807B2, “Protocols for treatment of major depressive disorder (MDD)” (NEURALSTEM, INC., priority 2014, dated 2017)
